Source: paper PMC4090575, “An In Vivo Microdialysis Study of FLZ Penetration through the Blood-Brain Barrier in Normal and 6-Hydroxydopamine Induced Parkinson's Disease Model Rats” (BioMed Research International, 2014)
Like-named read-outs stand apart in the source and are kept apart here.

Assays:
plasma proteins = test system: plasma proteins; design: method as in Our previous work; conditions: ref Our previous work; cited from earlier work
[1] = design: method as in PMID 22472186; conditions: cited from earlier work
[2] = Stability of FLZ in UPLC-MS/MS method validation; type: physicochemical; conditions: during preparation, after three freeze/thaw cycles and after storing at −80°C for 45 days
Protocol: Stock solutions of FLZ and IS were prepared separately in methanol at a target concentration of 1 mg/mL and then diluted with methanol to create working solutions of FLZ at concentrations of 1, 3, 10, 30, 100, 300, 1000, 1500, 2500, 5000, 10000, and 15000 ng/mL and IS at concentrations of 10 ng/mL. All solutions were stored in glass tubes at 4°C for less than 2 months until analysis and were protected from light. FLZ calibration standards (0.1, 0.3, 1, 3, 10, 30, 100, 150, 250, 500, 1000, and 1500 ng/mL) were prepared by spiking the blank perfusate with the appropriate working standard solution of FLZ. Quality control samples were prepared using the working solutions from the same stock solution (0.1, 0.3, 1, 10, 100, and 1000 ng/mL), thereby representing the entire range of concentrations.
Assay validation to meet the acceptance criteria was performed according to the bioanalytical method validation guideline (European Medicines Agency Guideline on Bioanalytical Method Validation, July 21, 2011). The assay was validated in terms of specificity, matrix effect, recovery, calibration curve, precision, accuracy (intra- and interday), lower limit of quantification (LLOQ), and stability (autosampler, freeze-thaw, and long-term).

P-gp = test: In vivo microdialysis pharmacokinetics of free FLZ in blood and brain dialysates, with or without zosuquidar·3HCl pretreatment; design: species or system rat; conditions: rat, iv, with zosuquidar·3HCl 20 mg/kg i.v. 10 min before FLZ; for AUC / clearance / half-life: 35 mg/kg; for AUC: zosuquidar·3HCl 20 mg/kg i.v. 10 min before FLZ 35 mg/kg i.v., n = 3; for clearance / half-life / unbound brain-to-blood AUC ratio (Kp,uu): zosuquidar·3HCl 20 mg/kg i.v. pretreatment, FLZ 35 mg/kg i.v.; for clearance: read-out: CLz, Blood (converted); for unbound brain-to-blood AUC ratio (Kp,uu): brain dialysate / blood dialysate, read-out: Ri (AUCbrain/AUCblood)
Protocol: (§1) Rats were divided into four groups (n = 3 animals per group): three normal rats treated with FLZ only (FLZ only-N); three PD rats treated with FLZ only (FLZ only-PD); three normal rats treated with FLZ plus zosuquidar·3HCl (FLZ + ZOSUQ-N); and three PD rats treated with FLZ plus zosuquidar·3HCl (FLZ + ZOSUQ-PD). The system was equilibrated for 1 h after surgery. FLZ was dissolved in a mixture of dimethyl sulfoxide, polyethylene glycol 400, and sodium chloride injection (1 : 4 : 5 (v/v/v)). All rats received FLZ (35 mg/kg) via intravenous injection into the tail vein (with or without pretreatment with zosuquidar·3HCl). Rats in the FLZ + ZOSUQ-N and FLZ + ZOSUQ-PD groups received an i.v. injection of zosuquidar·3HCl (20 mg/kg, dissolved in 20% ethanol-saline) 10 min before FLZ administration. The dose, route of administration, and timing of P-gp inhibition were based on those described in earlier studies. Microdialysis samples were collected from the striatum and the jugular vein at 15 min intervals for 1 h before (blanks) and for 4 h after FLZ administration. The samples were stored at −80°C until they were analysed by ultraperformance liquid chromatography-tandem mass spectrometry (UPLC-MS/MS). At the end of the experiment, the rats were decapitated and the brains were removed for histological verification of probe placement. Data were discarded if the probe placement was outside the target area.
(§2) The microdialysis system comprised a CMA 470 refrigerated fraction collector, a CMA 402 syringe pump, and fluorinated ethylene propylene tubing (CMA, Solna, Sweden). CMA microdialysis probes for the blood (CMA 20, 10 mm in length) and brain (CMA 12, 4 mm in length) were also used. Animals were anaesthetized with urethane (1.4 g/kg, i.p.) before surgery and remained anesthetized throughout the experimental period. The body temperature of each rat was maintained at 37°C until the end of the experiment using a heating pad. The blood microdialysis probe was positioned within the jugular vein toward the right atrium and sutured to the surrounding muscle to prevent it from slipping out. The probe was then perfused with heparinized ringer's solution (1500 U/mL) for 15 min. The microdialysis guide cannula was implanted into the right striatum zone (anterior-posterior: 0.2 mm; lateral: 3.0 mm; dorsal-ventral: 3.5 mm from bregma) and fixed to the skull with stainless steel screws and dental acrylic. The brain microdialysis probe was inserted through the guide cannula.
(§3) In the pilot microdialysis experiment, ringer's solution was perfused through the probe at a flow rate of 1.5 μL/min and the dialysate samples were collected every 15 min from 90 min before until 6 h after dosing with FLZ. In all the other groups, the probes were perfused with ringer's solution containing 4% BSA, with the flow rate set at 1.0 μL/min.
(§4) The relative recovery of FLZ using the microdialysis probe was estimated using a retrodialysis method after sample collection and clearing overnight until there is no drug in the tissue and blood. Perfusates containing FLZ (20 ng/mL for the brain and 200 ng/mL for the blood) were passed separately into the brain and blood through the microdialysis probes at a constant flow rate of 1 μL/min. After a 1-hour stabilization period, the dialysates were collected at 15 min intervals for 1 hour. The concentrations of FLZ in the dialysate (C out) and perfusate (C in) were analysed by UPLC-MS/MS as described in Section 2.7. Recovery (R) was expressed by the following equation: R = 1 − (C out/C in).
(§5) Pharmacokinetic parameters were calculated from the observed data by noncompartmental analysis using the Drug and Statistics for Windows software package (DAS, version 2.0, Chinese Pharmacological Association, China). […]

[3] = as above; design: species or system rat; conditions: for AUC, Brain / AUC: n = 3; for AUC / clearance / half-life / unbound brain-to-blood AUC ratio (Kp,uu): rat, 35 mg/kg; for clearance: read-out: CLz, Blood (converted); for unbound brain-to-blood AUC ratio (Kp,uu): brain dialysate / blood dialysate, BBB penetration ratio of free FLZ, read-out: Ri (AUCbrain/AUCblood)
Protocol: as §1, §2, §3, §4, §5

[4] = stated with the material supplied; source not given; cited from earlier work
[5] = test system: P-gp mediated multidrug resistance; design: method as in PMID 9381979; conditions: high therapeutic index; cited from earlier work
[6] = blood (jugular vein) dialysate, FLZ + ZOSUQ-N: normal rats, blood dialysate
[7] = blood (jugular vein) dialysate, FLZ + ZOSUQ-PD: 6-OHDA PD rats, blood dialysate
[8] = FLZ + ZOSUQ-N group relative to FLZ only-N group, normal rats
[9] = FLZ + ZOSUQ-PD group relative to FLZ only-PD group, PD rats

Question: With `COc1ccc(OC)c(C(=Cc2ccc(O)c(OC)c2)C(=O)NCCc2ccc(O)cc2)c1` [FLZ, N-[2-(4-hydroxy-phenyl)-ethyl]-2-(2,5-dimethoxy-phenyl)-3-(3-methoxy-4-hydroxy-phenyl)-acrylamide] as the molecule, how does the “binding rate of FLZ to plasma proteins” value (plasma proteins) read?
Answer: about 90%

Question: And the “increase in FLZ brain-to-plasma ratio with zosuquidar·3HCl pretreatment versus control” value ([1]; 0.25 min postdose, brain homogenate-to-plasma concentration ratio)?
Answer: about 3.1 fold

Question: And the “t 1/2 of FLZ reported previously” value [1]?
Answer: about 0.5 h

Question: And the “stability of FLZ” value [2]?
Answer: remained stable

Question: What about the AUC (P-gp; [6]) of the same molecule?
Answer: 1560 ± 881 ng·h/mL

Question: And the clearance (P-gp; [6])?
Answer: 473 mL/min/kg

Question: What about the half-life (P-gp; blood (jugular vein) dialysate, FLZ + ZOSUQ-N: normal rats, blood dialysate, read-out: t 1/2, Blood (converted)) of the same molecule?
Answer: 66.6 ± 7.8 min

Question: And the AUC (P-gp; [7])?
Answer: 1330 ± 259 ng·h/mL

Question: What about the clearance (P-gp; [7]) of the same molecule?
Answer: 447 mL/min/kg

Question: What about the half-life (P-gp; blood (jugular vein) dialysate, FLZ + ZOSUQ-PD: 6-OHDA PD rats, blood dialysate, read-out: t 1/2, Blood (converted)) of the same molecule?
Answer: 85.8 ± 15 min

Question: What about the half-life (P-gp; brain (striatum) dialysate, FLZ + ZOSUQ-N: normal rats, brain dialysate, read-out: t 1/2, Brain (converted)) of the same molecule?
Answer: 62.4 ± 25.8 min

Question: What about the half-life (P-gp; brain (striatum) dialysate, FLZ + ZOSUQ-PD: 6-OHDA PD rats, brain dialysate, read-out: t 1/2, Brain (converted)) of the same molecule?
Answer: 68.4 ± 16.2 min

Question: What about the unbound brain-to-blood AUC ratio (Kp,uu) (P-gp; FLZ + ZOSUQ-N: normal rats) of the same molecule?
Answer: 0.248 ± 0.114

Question: What about the unbound brain-to-blood AUC ratio (Kp,uu) (P-gp; FLZ + ZOSUQ-PD: 6-OHDA PD rats) of the same molecule?
Answer: 0.246 ± 0.027

Question: What about the “reduction in FLZ blood dialysate AUC” value ([3]; FLZ + ZOSUQ-N group compared with FLZ only-N group, normal rats, not statistically significant) of the same molecule?
Answer: 34%

Question: And the “increase in brain : blood free FLZ AUC ratio” value [3, 8]?
Answer: 3 fold

Question: What about the “increase in mean brain dialysate FLZ AUC” value [3, 8] of the same molecule?
Answer: 123%

Question: And the “AUC, Brain” value ([3]; FLZ + ZOSUQ-N: normal rats, zosuquidar·3HCl 20 mg/kg i.v. pretreatment, FLZ 35 mg/kg i.v., brain dialysate)?
Answer: 324 ± 46∗∗ μg/L × h

Question: And the “decrease in FLZ blood dialysate AUC” value [3, 9]?
Answer: 56%

Question: What about the “increase in FLZ brain dialysate AUC” value [3, 9] of the same molecule?
Answer: 130%

Question: And the “increase in brain : blood free FLZ AUC ratio” value [3, 9]?
Answer: 4 fold

Question: And the “AUC, Brain” value ([3]; FLZ + ZOSUQ-PD: 6-OHDA PD rats, zosuquidar·3HCl 20 mg/kg i.v. pretreatment, FLZ 35 mg/kg i.v., brain dialysate)?
Answer: 333 ± 103∗ μg/L × h

Question: What about the “AUC, Brain” value ([3]; FLZ only-N: normal rats, FLZ 35 mg/kg i.v., brain (striatum) dialysate) of the same molecule?
Answer: 145 ± 25 µg·h/L

Question: What about the “decrease in brain : blood free FLZ AUC ratio” value ([3]; FLZ only-PD group relative to FLZ only-N group, not statistically significant) of the same molecule?
Answer: 20%

Question: What about the “AUC, Brain” value ([3]; FLZ only-PD: 6-OHDA PD rats, FLZ 35 mg/kg i.v., brain (striatum) dialysate) of the same molecule?
Answer: 145 ± 18 µg·h/L

Question: And the AUC ([3]; blood (jugular vein) dialysate, iv, FLZ only-N: normal rats, FLZ 35 mg/kg i.v., blood dialysate, free FLZ)?
Answer: 2350 ± 39 ng·h/mL

Question: And the clearance ([3]; blood (jugular vein) dialysate, iv, FLZ only-N: normal rats, FLZ 35 mg/kg i.v., blood dialysate)?
Answer: 248 mL/min/kg

Question: And the half-life ([3]; blood (jugular vein) dialysate, iv, FLZ only-N: normal rats, FLZ 35 mg/kg i.v., blood dialysate, read-out: t 1/2, Blood (converted))?
Answer: 72.6 ± 13.2 min

Question: And the AUC ([3]; blood (jugular vein) dialysate, iv, FLZ only-PD: 6-OHDA PD rats, FLZ 35 mg/kg i.v., blood dialysate, free FLZ)?
Answer: 3070 ± 621 ng·h/mL

Question: What about the clearance ([3]; blood (jugular vein) dialysate, iv, FLZ only-PD: 6-OHDA PD rats, FLZ 35 mg/kg i.v., blood dialysate) of the same molecule?
Answer: 195 mL/min/kg

Question: And the half-life ([3]; blood (jugular vein) dialysate, iv, FLZ only-PD: 6-OHDA PD rats, FLZ 35 mg/kg i.v., blood dialysate, read-out: t 1/2, Blood (converted))?
Answer: 80.4 ± 1.8 min

Question: What about the half-life ([3]; blood dialysate and brain dialysate, intravenous, present study, both in the blood and brain, free FLZ, read-out: t 1/2 of FLZ (converted)) of the same molecule?
Answer: ~66 min

Question: And the half-life ([3]; brain (striatum) dialysate, iv, FLZ only-N: normal rats, FLZ 35 mg/kg i.v., brain dialysate, read-out: t 1/2, Brain (converted))?
Answer: 69 ± 34.2 min

Question: What about the half-life ([3]; brain (striatum) dialysate, iv, FLZ only-PD: 6-OHDA PD rats, FLZ 35 mg/kg i.v., brain dialysate, read-out: t 1/2, Brain (converted)) of the same molecule?
Answer: 78.6 ± 17.4 min

Question: And the unbound brain-to-blood AUC ratio (Kp,uu) ([3]; iv, FLZ only-N: normal rats, FLZ 35 mg/kg i.v.)?
Answer: 0.0617 ± 0.0105

Question: And the unbound brain-to-blood AUC ratio (Kp,uu) ([3]; iv, FLZ only-PD: 6-OHDA PD rats, FLZ 35 mg/kg i.v.)?
Answer: 0.0492 ± 0.0158

Question: What about the lipophilicity [4] of the same molecule?
Answer: lipophilic

Question: What about the pKa [4] of the same molecule?
Answer: 13.75 ± 0.46

Question: What about the water solubility [4] of the same molecule?
Answer: poorly water-soluble

Question: Which “active doses in in vivo antitumor efficacy experiments” value [5] does the source give for `Cl.Cl.Cl.O[C@@H](COc1cccc2ncccc12)CN1CCN([C@@H]2c3ccccc3[C@@H]3[C@H](c4ccccc42)C3(F)F)CC1` [Zosuquidar·3HCl, zosuquidar trihydrochloride] here?
Answer: 1 to 30 mg/kg
